These results are taken from US20240139188A1, “Arylamide Compounds For Treatment And Prevention Of Fungal Infections” (priority 2022, published 2024).

Series [1] concerns A549 human lung cancer cells. The class given is cell-based. The note with it: 48 h, 10 %. As for the experimental part: Cytotoxicity assay: Cytotoxicity assays in A549 human lung cancer cells were performed using XTT assay as indicated in the manufacturers' instructions. Cells (2×10^5 cells/well) were seeded in 96-well tissue plates and incubated in Dulbecco's Modified Eagle Medium (DMEM) culture medium. After 24 hours of incubation, the cells were treated with BRI (40 and 80 μM/well), CAS (50, 100 and 200 μg/well) or in different CAS+BRI combinations. After 48 hours incubation, the cell viability was assessed by using the XTT kit (Roche Applied Science) according to the manufacturer's instructions. Formazan formation was quantified spectrophotometrically at 450 nm (reference wavelength 620 nm) using a microplate reader. The experiment was made in three replicates. Viability was calculated using the background-corrected absorbance as follows: Cell viability (%)=absorbance value of experiment well/absorbance value of control well×100.

The subject of series [2] is Cryptococcus neoformans. The series is described as follows: In vitro susceptibility (MIC), macrobroth dilution. The class given is cell-based. The note with it: C. neoformans CN9759, drug alone.
For series [3], the system named is Candida albicans. The series is described as follows: In vitro susceptibility (MIC), macrobroth dilution. Format: cell-based. The note with it: C. albicans 5, drug alone.
Series [4] concerns Aspergillus fumigatus. The series can be described thus: In vitro susceptibility (MIC), macrobroth dilution. The class given is cell-based. The note with it: A. fumigatus 21-23, drug alone.
For series [5], the system named is Mucorales Mucor species. The series can be described thus: In vitro susceptibility (MIC), macrobroth dilution. Format: cell-based. To be noted: Mucor sp. 13-127, drug alone.
For series [6], the system named is A. fumigatus conidia infecting A549 pulmonary cells. The series is described as follows: Killing assay in infected A549 cells. The note with it: monotherapy. The class given is cell-based, Aspergillus fumigatus. As for the experimental part: Killing assay: The type II pneumocyte cell line A549 was cultured using DMEM (ThermoFischer Scientific, Paisley. […] After 24 hours of incubation in 5% CO2 the culture media was removed, and 2 ml of sterile water was added to the wells. A P1000 tip was then used to scrape away the cell monolayer and the cell suspension was collected. This suspension was then diluted 1:1000 and 100 μl was plated on Sabouraud Dextrose Agar Media before the plates were incubated a 37° C. overnight. The numbers of CFUs were determined after 24 hours of growth. A volume of 50 μl of the inoculum adjusted to 103/ml was also plated on SAB agar to correct CFU counts. The CFU percentage for each sample was calculated and the results were plotted using Graphpad Prism (GraphPad Software, Inc., La Jolla, CA, USA).

For series [7], the system named is A. fumigatus clinical isolates. The series is described as follows: Growth inhibition of clinical isolates by CAS, VOR, BRI and combinations. The note with it: strain CYP15-15-109, VOR.
In series [8] the test system is A. fumigatus. The series is described as follows: MIC/MEC, CLSI M38-A2. The class given is cell-based, Aspergillus fumigatus. The note with it: Aspergillus fumigatus, read-out: MIC VOR.
The test system of series [9] is A. fumigatus biofilms. The series can be described thus: Biofilm assay (XTT). To be noted: Aspergillus fumigatus, read-out: inhibition of biofilm formation.
Experimental: Biofilm assay: To test the susceptibility of pre-formed A. fumigatus biofilms to
VOR, CAS and to the combination of CAS+BRI and VOR+BRI, a suspension containing 10^6 conidia per mL of the wild-type strain (Δku80 pyrG^+) was prepared in liquid MM and 100 μL of it was inoculated in each well of a 96-well plate. After 24 hours of incubation at 37° C., 50 μL of fresh MM containing CAS, VOR or the combination of VOR and CAS with BRI was added to the biofilm to reach the final concentration as indicated and incubated for a further 12 hours at 37° C. Wells containing untreated conidia were used as a positive control. After, the metabolic activity of the cells was evaluated by adding 50 μL of an aqueous XTT solution (1 mg/mL of XTT and 125 μM of menadione) to each well. The plate was incubated for additional 1 hour at 37° C., centrifuged (2000 rpm, 5 minutes) and 100 μL of the supernatant was transferred to a flat-bottomed 96-well plate. The absorbance was measured at 450 nm on a plate reader (Synergy HTX Multi-Mode Reader- BioTek Instruments). The XTT assay's were performed in six replicates.
[10] abbreviates: lowest concentration causing 50% decrease in growth vs untreated control.
Setting [11] is: lowest concentration without growth.

Values after ≈ are worked out from the molar mass of the structure shown. Where two headings read alike, the source gives them in different places. Numbered stars: 1 amine (or outer) side, 2 acyl side, 3 side chain; on linkers, the order of the positions; unused ones are H or OH. Bridge positions count the residues as written; N and C are the ends. Square brackets hold non-standard residues; d marks the D form. Peptide text beside a SMILES is read from it. * marks the point of attachment. hTyr(3S-OH,4S-OH,3'-OSO3H) = N[C@H](C(=O)O)[C@H](O)[C@@H](O)c1ccc(O)c(OS(=O)(=O)O)c1; Orn(4R-OH,5R-OH) = O=C([C@H](C[C@@H](O)[C@@H](O)N[*:3])N[*:1])[*:2]; Pro(3S-OH,4S-Me) = C[C@H]1CN[C@H](C(=O)O)[C@H]1O; X1 = CCCCCOc1ccc(-c2cc(-c3ccc(C(=O)*)cc3)no2)cc1; Gln(3R-OH) = NC(=O)C[C@@H](O)[C@H](N)C(=O)O; Hyp = O=C(O)[C@@H]1C[C@@H](O)CN1

With `C[S+](C)[O-]` [DMSO, dimethyl sulfoxide], the “reduction of cell viability” value in series [1] was determined as 80%.
As for `OC(Cn1cncn1)(Cn1cncn1)c1ccc(F)cc1F` [Fluconazole (FLU)], the MIC50 in [2] (setting [10]) was found to be 1 mg/L (≈ 3.27 µM). The MIC100 in series [2] (setting [11]) worked out at 1 mg/L (≈ 3.27 µM).
As for `CCCCCOc1ccc(-c2cc(-c3ccc(C(=O)N[C@H]4C[C@@H](O)[C@@H](O)NC(=O)[C@@H]5[C@@H](O)[C@@H](C)CN5C(=O)[C@H]([C@H](O)CC(N)=O)NC(=O)[C@H]([C@H](O)[C@@H](O)c5ccc(O)c(OS(=O)(=O)O)c5)NC(=O)[C@@H]5C[C@@H](O)CN5C(=O)[C@H]([C@@H](C)O)NC4=O)cc3)no2)cc1` [Micafungin (MICA)] (X1-[Orn(4R-OH,5R-OH)]T[Hyp][hTyr(3S-OH,4S-OH,3'-OSO3H)][Gln(3R-OH)][Pro(3S-OH,4S-Me)]; lactam 1-C), the results for the MIC50 in [3] (setting [10]), in series [4] (setting [10]) and in series [5] (setting [10]) were no more than 0.03 mg/L, no more than 0.06 mg/L and greater than 16 mg/L, respectively. For the same molecule, the results for the MIC100 in series [3] (setting [11]), in series [4] (setting [11]) and in series [5] (setting [11]) were 0.25 mg/L (≈ 0.197 µM), greater than 16 mg/L and greater than 16 mg/L, respectively.
As for `C[C@@H](c1ncncc1F)[C@](O)(Cn1cncn1)c1ccc(F)cc1F` [VOR, voriconazole], the A. fumigatus killing in [6] is on record as roughly 60%. In addition, the growth inhibition result in series [7] is recorded as “totally inhibited”. Moreover, the MIC in series [8] (A. fumigatus VOR^R clinical isolate named in c0 of the row) was found to be 8 mg/L (≈ 22.9 µM). Moreover, in [8] (A. fumigatus WT (CEA17)), the MIC amounted to 2 mg/L (≈ 5.73 µM). For the same molecule, in [9], the inhibition at 2 µg/mL was roughly 10% and the inhibition at 4 µg/mL is roughly 50%.
